How the values were obtained:
[1] = system: MCF7; experiment: cells; details: Homo sapiens, MCF7, 48 h
Description: Antiproliferative activity against human MCF7 cells assessed as reduction in cell viability measured after 48 hrs by MTT assay

[2] = system: B16-F10; experiment: Antiproliferative activity against mouse B16-F10 cells assessed as reduction in cell viability measured after 48 hrs by MTT assay; format: functional, cell-based; details: B16-F10, 48 h
[3] = system: HeLa; experiment: cells; details: Homo sapiens, 48 h
Description: Antiproliferative activity against human HeLa cells assessed as reduction in cell viability measured after 48 hrs by MTT assay

[4] = system: HepG2; experiment: Antiproliferative activity against human HepG2 cells assessed as reduction in cell viability measured after 48 hrs by MTT assay; format: functional, cell-based; details: HepG2, 48 h
[5] = Inhibition of pig brain tubulin polymerization by spectrophotometric method; format: tissue-based, Sus scrofa

| Compound | IC50 [1] [µM] | IC50 [2] [µM] | IC50 [3] [µM] | IC50 [4] [µM] | IC50 [5] [µM] |
| --- | --- | --- | --- | --- | --- |
| COc1ccc(N(C)c2ccnc(C)n2)cc1 | 5.32 | 4.06 | 6.12 | 1.4 |  |
| CN(c1ccc(C#N)cc1)c1cccc2ncccc12 | 30.9 | 25.2 | 36.5 | 28.7 |  |
| COc1ccc2nc3cc(Cl)ccc3c(Nc3cc(OC)c(OC)c(OC)c3)c2c1 | 6.6 | 6.97 | 8.07 | 5.23 |  |
| COc1ccc(/C=C\c2cc(OC)c(OC)c(OC)c2)cc1O [COMBRETASTATIN A4] | 0.019 | 0.014 | 0.023 |  | 1.84 |
| CCCCN(c1cc(OC)c(OC)c(OC)c1)c1ccnc(C)n1 | 20.2 | 19.3 | 17 | 16.8 |  |
| CCCCN(c1ccccc1)c1cccc2ncccc12 | 20 | 27.1 | 29.9 | 22.1 |  |
| COc1cc(Nc2ccnc(C)c2)cc(OC)c1OC | 13.3 | 18.9 | 16.1 | 11.4 |  |
| COc1cc(N(C)c2c3ccccc3nc3ccccc23)cc(OC)c1OC | 2.03 | 1.39 | 2.7 | 1.81 |  |
| CCCCN(c1ccnc(C)c1)c1cc(OC)c(OC)c(OC)c1 | 17.3 | 18.4 | 16.8 | 15.6 |  |
| COc1ccc(N(C)c2ccnc3cc(Cl)ccc23)cc1 | 4.42 | 1.38 | 2.67 | 0.939 |  |
| COc1ccc(N(C)c2ccnc(C)c2)cc1 | 13.3 | 15.4 | 18.7 | 15.5 |  |
| COc1cc(Nc2ccnc3cc(Cl)ccc23)cc(OC)c1OC | 9.27 | 7.22 | 8.65 | 6.82 |  |
| COc1cc(Nc2cccc3ncccc23)cc(OC)c1OC | 1.14 | 1.28 | 2.8 | 0.783 |  |
| CCCCN(c1ccc(OC)cc1)c1ccnc(C)n1 | 9.38 | 9.06 | 8.61 | 6.71 |  |
| COc1ccc2nc3cc(Cl)ccc3c(N(C)c3cc(OC)c(OC)c(OC)c3)c2c1 | 3.13 | 3.79 | 4.01 | 2.83 |  |
| CN(c1ccc(F)c(Cl)c1)c1cccc2ncccc12 | 23.6 | 25.5 | 30.9 | 20.1 |  |
| CCCCN(c1ccc(OC)cc1)c1ccnc(C)c1 | 22.5 | 20.2 | 19.7 | 18.7 |  |
| CN(c1ccccc1)c1cccc2ncccc12 | 20.4 | 18.1 | 24 | 16 |  |
| CCCCN(c1ccc(OC)cc1)c1c2ccccc2nc2ccccc12 | 7.11 | 6.45 | 8.65 | 3.44 |  |
| COc1cc(N(C)c2ccnc(C)n2)cc(OC)c1OC | 14.5 | 15.4 | 16.2 | 12.7 |  |
| COc1ccc(Nc2ccnc3cc(Cl)ccc23)cc1 | 9.69 | 8.32 | 8.79 | 6.98 |  |
| CCCCN(c1ccc(OC)cc1)c1c2ccc(Cl)cc2nc2ccc(OC)cc12 | 9.06 | 9.04 | 9.82 | 8.16 |  |
| CCCCN(c1ccc(OC)cc1)c1ccnc2cc(Cl)ccc12 | 7.12 | 6.84 | 6.47 | 5.69 |  |
| CCCCN(c1ccc(F)c(Cl)c1)c1cccc2ncccc12 | 33.8 | 29.5 | 32.1 | 26.7 |  |
| COc1ccc(Nc2c3ccccc3nc3ccccc23)cc1 | 1.23 | 2.14 | 3.67 | 1.47 |  |

Continued, in another order:

| IC50 [1] [µM] | IC50 [2] [µM] | IC50 [3] [µM] | IC50 [4] [µM] | Compound | IC50 [5] [µM] |
| --- | --- | --- | --- | --- | --- |
| 8.33 | 7.65 | 9.29 | 7 | CCCCN(c1cc(OC)c(OC)c(OC)c1)c1cccc2ncccc12 |  |
| 4.44 | 4.68 | 5.3 | 3.55 | CCCCN(c1cc(OC)c(OC)c(OC)c1)c1c2ccccc2nc2ccccc12 |  |
| 4.64 | 4.57 | 4.16 | 3.79 | COc1ccc(Nc2cccc3ncccc23)cc1 |  |
| 14.3 | 13.3 | 16.1 | 11.4 | COc1cc(N(C)c2ccnc3cc(Cl)ccc23)cc(OC)c1OC |  |
| 35.6 | 40.4 | 43.2 | 37.5 | N#Cc1ccc(Nc2cccc3ncccc23)cc1 |  |
| 4.86 | 4.66 | 6.08 | 3.5 | CCCCN(c1cc(OC)c(OC)c(OC)c1)c1c2ccc(Cl)cc2nc2ccc(OC)cc12 |  |
| 29.7 | 33.1 | 42.9 | 30.1 | CCCCN(c1ccc(C#N)cc1)c1cccc2ncccc12 |  |
| 5.17 | 4.98 | 7.2 | 3.19 | COc1ccc(Nc2c3ccc(Cl)cc3nc3ccc(OC)cc23)cc1 |  |
| 26.4 | 28.6 | 30.7 | 26.8 | c1ccc(Nc2cccc3ncccc23)cc1 |  |
| 5.67 | 6.54 | 6.8 | 4.46 | COc1cc(Nc2c3ccccc3nc3ccccc23)cc(OC)c1OC |  |
| 11.5 | 10 | 10.6 | 8.18 | COc1cc(Nc2ccnc(C)n2)cc(OC)c1OC |  |
| 16.4 | 14.7 | 17.3 | 15.4 | CCCCN(c1cc(OC)c(OC)c(OC)c1)c1ccnc2cc(Cl)ccc12 |  |
| 12.5 | 10.6 | 13.6 | 6.78 | COc1ccc(Nc2ccnc(C)n2)cc1 |  |
| 7.77 | 8.05 | 8.95 | 7.24 | COc1ccc(N(C)c2c3ccc(Cl)cc3nc3ccc(OC)cc23)cc1 |  |
| 21.1 | 16.6 | 21 | 14.8 | COc1ccc(Nc2ccnc(C)c2)cc1 |  |
| 36.4 | 38.1 | 44.9 | 32.1 | Fc1ccc(Nc2cccc3ncccc23)cc1Cl |  |
| 15.3 | 22.5 | 14.1 | 18.6 | COc1cc(N(C)c2ccnc(C)c2)cc(OC)c1OC |  |
| 6.36 | 6.58 | 8.27 | 5.24 | COc1cc(N(C)c2cccc3ncccc23)cc(OC)c1OC |  |
| 3.78 | 2.43 | 3.06 | 1.37 | CCCCN(c1ccc(OC)cc1)c1cccc2ncccc12 |  |
| 5.17 | 5.78 | 6.49 | 4.18 | COc1ccc(N(C)c2c3ccccc3nc3ccccc23)cc1 |  |

— ChEMBL document CHEMBL4823314, “Design, synthesis and biological evaluation of novel acridine and quinoline derivatives as tubulin polymerization inhibitors with anticancer activities” (Bioorg Med Chem, 2021)
